# Results published in ChEMBL document CHEMBL4382204 (Eur J Med Chem, 2018).
# The source made the active and inactive calls. The rule behind the calls is not given here.
# How the values were obtained:
# [1] = molecular target: Mast/stem cell growth factor receptor Kit (Homo sapiens) (UniProt P10721); assay: Inhibition of wild type C-terminal FLAG-tagged human TEL fused cKIT (unknown origin) transfected in mouse BAF3 cells assessed as growth inhibition after 72 hrs by CCK8 assay; format: cell-based
# [2] = Apparent volume of distribution during terminal phase in mouse at 1 mg/kg, iv by LC-MS/MS analysis; format: ADME, organism-based; conditions: in vivo, read-out: Vz
# [3] = molecular target: Fibroblast growth factor receptor 2 (Homo sapiens) (UniProt P21802); assay: Inhibition of wild type C-terminal FLAG-tagged human TEL fused FGFR2 (unknown origin) transfected in mouse BAF3 cells assessed as growth inhibition after 72 hrs by CCK8 assay; format: cell-based
# K562 [4] = assay: Cell cycle arrest in human K562 cells assessed as accumulation at G0/G1 phase up to 0.3 uM after 24 hrs by propidium iodide/RNase staining based flow cytometric analysis; format: functional
# [5] = molecular target: T1, Bcr/Abl fusion protein (Homo sapiens) (UniProt P00519+P11274); assay: Inhibition of BCR/ABL in human K562 cells assessed as inhibition of STAT5 phosphorylation up to 0.3 uM after 1 hr by immunoblotting analysis; format: cell-based
# [6] = molecular target: T1, Bcr/Abl fusion protein (Homo sapiens); assay: Inhibition of BCR/ABL in human MEG01 cells assessed as inhibition of STAT5 phosphorylation up to 0.3 uM after 1 hr by immunoblotting analysis; format: cell-based
# [7] = system: Bcr/Abl fusion protein (Homo sapiens), P00519+P11274 [F317I]; conditions: BaF3
# [8] = Cmax in Sprague-Dawley rat at 10 mg/kg, po by LC-MS/MS analysis; format: ADME, organism-based; parameters: dose 10 mg/kg, route oral; conditions: in vivo
# BaF3 [9] = assay: Antitumor activity against mouse BAF3 cells expressing BCR/ABL T315I mutant allografted in nu/nu mouse assessed as tumor growth inhibition at 25 to 50 mg/kg, po administered via gavage for 14 days by TUNEL staining based assay; format: functional, organism-based
# [10] = molecular target: T1, Bcr/Abl fusion protein (Homo sapiens); assay: Inhibition of BCR/ABL in human K562 cells assessed as inhibition of ErK phosphorylation up to 0.3 uM after 1 hr by immunoblotting analysis; format: cell-based
# [11] = molecular target: T1, Bcr/Abl fusion protein (Homo sapiens); assay: Inhibition of BCR/ABL in human KU812 cells assessed as inhibition of ErK phosphorylation up to 0.3 uM after 1 hr by immunoblotting analysis; format: cell-based
# MEG-01 [12] = assay: Cell cycle arrest in human MEG01 cells assessed as accumulation at G0/G1 phase up to 0.3 uM after 24 hrs by propidium iodide/RNase staining based flow cytometric analysis; format: functional
# HL-60 = assay: Antiproliferative activity in human HL60 cells after 72 hrs by CCK8 assay; format: functional; conditions: HL-60, 72 h
# BaF3 [13] = assay: Cell cycle arrest in mouse BAF3 cells expressing BCR/ABL T315I mutant assessed as accumulation at G0/G1 phase up to 0.3 uM after 24 hrs by propidium iodide/RNase staining based flow cytometric analysis; format: functional
# KU812 cell line = assay: Induction of apoptosis in human KU812 cells assessed as cleaved caspase-3 level up to 0.3 uM after 24 hrs by immunoblotting analysis; format: functional, cell-based
# [14] = system: Tyrosine-protein kinase ABL1 (Homo sapiens), P00519 [T315I]; conditions: BaF3
# U-937 = assay: Antiproliferative activity in human U937 cells after 72 hrs by CCK8 assay; format: functional; conditions: U-937, 72 h
# [15] = molecular target: Proto-oncogene tyrosine-protein kinase Src (Homo sapiens) (UniProt P12931); assay: Inhibition of wild type C-terminal FLAG-tagged human TEL fused SRC (unknown origin) transfected in mouse BAF3 cells assessed as growth inhibition after 72 hrs by CCK8 assay; format: cell-based
# MEG-01 [16] = assay: Antiproliferative activity in human MEG01 cells after 72 hrs by CCK8 assay; format: functional; conditions: MEG-01, 72 h
# BaF3 [17] = assay: Induction of apoptosis in mouse BAF3 cells expressing BCR/ABL T315I mutant assessed as cleaved caspase-3 level up to 0.3 uM after 24 hrs by immunoblotting analysis; format: functional, cell-based
# [18] = system: Bcr/Abl fusion protein (Homo sapiens), P00519+P11274 [V299L]; conditions: BaF3
# [19] = Oral bioavailability in Sprague-Dawley rat at 10 mg/kg by LC-MS/MS analysis; format: ADME, organism-based; conditions: in vivo
# [20] = Half life in mouse at 1 mg/kg, iv by LC-MS/MS analysis; format: ADME, organism-based; conditions: in vivo
# MEC1 = assay: Antiproliferative activity in human MEC1 cells after 72 hrs by CCK8 assay; format: functional; conditions: MEC1, 72 h
# [21] = Cmax in mouse at 1 mg/kg, iv by LC-MS/MS analysis; format: ADME, organism-based; parameters: dose 1 mg/kg, route intravenous; conditions: in vivo
# [22] = molecular target: Ephrin type-A receptor 2 (Homo sapiens) (UniProt P29317); assay: Inhibition of wild type C-terminal FLAG-tagged human TEL fused EPHA2 (unknown origin) transfected in mouse BAF3 cells assessed as growth inhibition after 72 hrs by CCK8 assay; format: cell-based
# [23] = Tmax in mouse at 10 mg/kg, po by LC-MS/MS analysis; format: ADME, organism-based; conditions: in vivo
# K562 [24] = assay: Antiproliferative activity in human K562 cells after 72 hrs by CCK8 assay; format: functional; conditions: K562, 72 h
# [25] = molecular target: Vascular endothelial growth factor receptor 1 (Homo sapiens) (UniProt P17948); assay: Inhibition of wild type C-terminal FLAG-tagged human TEL fused FLT1 (unknown origin) transfected in mouse BAF3 cells assessed as growth inhibition after 72 hrs by CCK8 assay; format: cell-based
# [26] = molecular target: Tyrosine-protein kinase ABL1 (Homo sapiens, UniProt P00519, T315I); assay: Inhibition of active wild type His-tagged ABL T315I mutant (229 to 500 residues) (unknown origin) expressed in baculovirus infected sf9 cells using ABLtide as substrate after 1 hr by ADP-Glo assay
# OCI-AML2 = assay: Antiproliferative activity in human OCI-AML2 cells after 72 hrs by CCK8 assay; format: functional; conditions: OCI-AML2, 72 h
# [27] = molecular target: Fibroblast growth factor receptor 3 (Homo sapiens) (UniProt P22607); assay: Inhibition of wild type C-terminal FLAG-tagged human TEL fused FGFR3 (unknown origin) transfected in mouse BAF3 cells assessed as growth inhibition after 72 hrs by CCK8 assay; format: cell-based
# BaF3 [28] = assay: Antitumor activity against mouse BAF3 cells expressing BCR/ABL T315I mutant allografted in nu/nu mouse assessed as tumor growth inhibition at 25 mg/kg, po administered via gavage for 14 days relative to control; format: functional; conditions: 336 h, read-out: TGI
# [29] = MRT (0 to t) in Sprague-Dawley rat at 1 mg/kg, iv by LC-MS/MS analysis; format: ADME, organism-based; conditions: in vivo
# [30] = molecular target: Discoidin domain-containing receptor 2 (Homo sapiens) (UniProt Q16832); assay: Inhibition of BCR fused DDR2 (unknown origin) transfected in mouse BAF3 cells assessed as growth inhibition after 72 hrs by CCK8 assay; format: cell-based
# [31] = MRT (0 to t) in mouse at 1 mg/kg, iv by LC-MS/MS analysis; format: ADME, organism-based; conditions: in vivo
# Chain of Mast/stem cell growth factor receptor Kit (Homo sapiens) (P10721 whole entry, the tested form may be a part): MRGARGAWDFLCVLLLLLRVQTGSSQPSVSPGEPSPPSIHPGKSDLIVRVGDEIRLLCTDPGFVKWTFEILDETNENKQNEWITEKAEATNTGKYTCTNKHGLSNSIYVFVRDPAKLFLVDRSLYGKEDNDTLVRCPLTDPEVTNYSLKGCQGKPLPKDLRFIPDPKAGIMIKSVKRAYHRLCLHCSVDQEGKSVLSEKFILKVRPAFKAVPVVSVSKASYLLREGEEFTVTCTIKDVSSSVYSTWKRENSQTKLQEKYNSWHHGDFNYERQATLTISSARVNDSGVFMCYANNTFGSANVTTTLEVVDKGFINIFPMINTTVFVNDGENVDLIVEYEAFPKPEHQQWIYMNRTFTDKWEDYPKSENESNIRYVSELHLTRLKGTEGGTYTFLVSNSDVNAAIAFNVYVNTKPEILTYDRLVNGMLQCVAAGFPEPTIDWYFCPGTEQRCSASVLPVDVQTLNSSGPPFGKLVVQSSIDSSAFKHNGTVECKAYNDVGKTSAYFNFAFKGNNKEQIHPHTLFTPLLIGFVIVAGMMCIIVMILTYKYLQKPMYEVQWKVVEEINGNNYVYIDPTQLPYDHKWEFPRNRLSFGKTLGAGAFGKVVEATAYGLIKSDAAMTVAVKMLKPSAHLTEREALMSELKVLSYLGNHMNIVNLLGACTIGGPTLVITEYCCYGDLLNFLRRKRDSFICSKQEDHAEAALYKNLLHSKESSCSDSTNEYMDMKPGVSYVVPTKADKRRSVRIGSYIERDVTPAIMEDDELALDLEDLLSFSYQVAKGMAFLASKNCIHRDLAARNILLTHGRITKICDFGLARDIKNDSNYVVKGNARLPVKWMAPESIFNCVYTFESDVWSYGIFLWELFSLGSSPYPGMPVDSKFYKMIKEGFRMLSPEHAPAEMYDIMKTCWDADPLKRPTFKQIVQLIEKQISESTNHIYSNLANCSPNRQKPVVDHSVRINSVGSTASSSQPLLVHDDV
# Chain of Ephrin type-A receptor 2 (Homo sapiens) (P29317 whole entry, the tested form may be a part): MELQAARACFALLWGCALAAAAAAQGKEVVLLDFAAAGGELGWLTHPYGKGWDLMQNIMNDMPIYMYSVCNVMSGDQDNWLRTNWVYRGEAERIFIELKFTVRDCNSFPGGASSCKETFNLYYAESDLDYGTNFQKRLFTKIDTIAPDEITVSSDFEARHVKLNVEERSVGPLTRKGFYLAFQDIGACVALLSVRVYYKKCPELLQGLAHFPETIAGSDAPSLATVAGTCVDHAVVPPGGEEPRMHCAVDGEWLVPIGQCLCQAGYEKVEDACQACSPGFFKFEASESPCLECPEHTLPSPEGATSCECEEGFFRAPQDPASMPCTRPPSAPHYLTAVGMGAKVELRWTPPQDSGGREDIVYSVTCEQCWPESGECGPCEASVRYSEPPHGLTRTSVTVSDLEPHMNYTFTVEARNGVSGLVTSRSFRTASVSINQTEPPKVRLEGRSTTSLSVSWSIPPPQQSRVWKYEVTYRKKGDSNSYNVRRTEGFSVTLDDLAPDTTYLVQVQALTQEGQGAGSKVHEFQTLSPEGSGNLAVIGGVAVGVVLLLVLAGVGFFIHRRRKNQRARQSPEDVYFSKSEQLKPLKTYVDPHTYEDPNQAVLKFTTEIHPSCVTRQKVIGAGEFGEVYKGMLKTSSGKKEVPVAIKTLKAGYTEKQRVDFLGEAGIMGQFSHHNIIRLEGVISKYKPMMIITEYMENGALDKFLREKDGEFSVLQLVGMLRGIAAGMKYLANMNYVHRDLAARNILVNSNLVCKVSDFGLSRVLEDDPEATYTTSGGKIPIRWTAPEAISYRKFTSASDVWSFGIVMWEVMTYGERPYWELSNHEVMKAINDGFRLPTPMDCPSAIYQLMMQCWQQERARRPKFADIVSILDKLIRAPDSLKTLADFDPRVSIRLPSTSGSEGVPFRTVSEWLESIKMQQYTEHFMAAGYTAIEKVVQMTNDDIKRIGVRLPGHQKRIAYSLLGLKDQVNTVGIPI
# Chain of Vascular endothelial growth factor receptor 1 (Homo sapiens) (P17948 whole entry, the tested form may be a part): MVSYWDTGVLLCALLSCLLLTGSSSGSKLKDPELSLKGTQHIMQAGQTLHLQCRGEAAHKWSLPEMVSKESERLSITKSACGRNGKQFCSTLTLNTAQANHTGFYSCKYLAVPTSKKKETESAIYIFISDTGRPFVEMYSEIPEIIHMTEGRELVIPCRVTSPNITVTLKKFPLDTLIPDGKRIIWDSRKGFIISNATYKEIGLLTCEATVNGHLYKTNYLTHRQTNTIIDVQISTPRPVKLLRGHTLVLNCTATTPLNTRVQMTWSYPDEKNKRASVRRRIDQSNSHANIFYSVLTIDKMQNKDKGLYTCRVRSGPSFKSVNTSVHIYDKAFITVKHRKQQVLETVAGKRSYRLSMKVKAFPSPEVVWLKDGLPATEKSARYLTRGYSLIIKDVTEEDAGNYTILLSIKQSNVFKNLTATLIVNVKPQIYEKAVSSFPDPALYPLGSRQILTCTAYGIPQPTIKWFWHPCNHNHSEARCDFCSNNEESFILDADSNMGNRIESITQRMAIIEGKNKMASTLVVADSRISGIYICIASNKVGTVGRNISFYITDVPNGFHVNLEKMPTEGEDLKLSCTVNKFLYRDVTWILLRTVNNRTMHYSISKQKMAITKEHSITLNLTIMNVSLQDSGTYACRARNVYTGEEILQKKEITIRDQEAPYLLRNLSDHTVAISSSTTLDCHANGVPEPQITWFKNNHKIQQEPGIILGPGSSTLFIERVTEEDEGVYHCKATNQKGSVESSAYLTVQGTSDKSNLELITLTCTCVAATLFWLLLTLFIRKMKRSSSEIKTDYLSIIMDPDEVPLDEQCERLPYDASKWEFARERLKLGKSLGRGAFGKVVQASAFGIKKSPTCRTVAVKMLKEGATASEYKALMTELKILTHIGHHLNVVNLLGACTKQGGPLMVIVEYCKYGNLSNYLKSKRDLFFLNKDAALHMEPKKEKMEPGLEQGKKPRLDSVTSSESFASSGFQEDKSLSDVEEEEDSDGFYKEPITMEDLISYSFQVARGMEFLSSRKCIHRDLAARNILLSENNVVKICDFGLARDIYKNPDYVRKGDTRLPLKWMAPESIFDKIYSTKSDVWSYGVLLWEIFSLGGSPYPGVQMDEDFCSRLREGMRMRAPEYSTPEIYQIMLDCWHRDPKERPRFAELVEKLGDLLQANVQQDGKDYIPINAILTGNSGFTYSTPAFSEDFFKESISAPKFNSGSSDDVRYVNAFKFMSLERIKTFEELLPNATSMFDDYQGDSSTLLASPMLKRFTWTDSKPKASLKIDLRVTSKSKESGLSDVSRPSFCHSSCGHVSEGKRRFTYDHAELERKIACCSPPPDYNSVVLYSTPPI
# Chain of Discoidin domain-containing receptor 2 (Homo sapiens) (Q16832 whole entry, the tested form may be a part): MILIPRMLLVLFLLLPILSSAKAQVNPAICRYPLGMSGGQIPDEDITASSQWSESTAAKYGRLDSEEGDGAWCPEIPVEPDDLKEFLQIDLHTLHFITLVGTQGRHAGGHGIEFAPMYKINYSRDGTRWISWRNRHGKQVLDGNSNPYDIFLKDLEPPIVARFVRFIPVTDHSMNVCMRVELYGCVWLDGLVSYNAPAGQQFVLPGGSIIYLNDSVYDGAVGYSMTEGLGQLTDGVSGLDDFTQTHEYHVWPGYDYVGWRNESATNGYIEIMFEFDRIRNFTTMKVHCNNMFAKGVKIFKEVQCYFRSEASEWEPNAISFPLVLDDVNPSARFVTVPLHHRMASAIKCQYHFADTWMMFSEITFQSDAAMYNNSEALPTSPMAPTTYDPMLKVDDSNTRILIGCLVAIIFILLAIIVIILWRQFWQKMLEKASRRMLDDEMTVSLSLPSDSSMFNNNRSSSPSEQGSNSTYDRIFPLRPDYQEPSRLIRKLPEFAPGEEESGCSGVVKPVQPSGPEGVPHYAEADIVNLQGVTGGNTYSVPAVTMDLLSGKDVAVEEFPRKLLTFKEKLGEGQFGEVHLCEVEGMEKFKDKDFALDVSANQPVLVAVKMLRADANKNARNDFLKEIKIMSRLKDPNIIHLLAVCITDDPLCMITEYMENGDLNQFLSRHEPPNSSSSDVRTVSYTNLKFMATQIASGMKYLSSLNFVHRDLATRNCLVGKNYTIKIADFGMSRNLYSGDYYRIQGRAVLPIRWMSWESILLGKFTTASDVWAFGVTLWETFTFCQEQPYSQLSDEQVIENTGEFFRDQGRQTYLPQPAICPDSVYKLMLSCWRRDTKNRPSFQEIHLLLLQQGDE
# Chain of Fibroblast growth factor receptor 3 (Homo sapiens) (P22607 23-806 limits assumed): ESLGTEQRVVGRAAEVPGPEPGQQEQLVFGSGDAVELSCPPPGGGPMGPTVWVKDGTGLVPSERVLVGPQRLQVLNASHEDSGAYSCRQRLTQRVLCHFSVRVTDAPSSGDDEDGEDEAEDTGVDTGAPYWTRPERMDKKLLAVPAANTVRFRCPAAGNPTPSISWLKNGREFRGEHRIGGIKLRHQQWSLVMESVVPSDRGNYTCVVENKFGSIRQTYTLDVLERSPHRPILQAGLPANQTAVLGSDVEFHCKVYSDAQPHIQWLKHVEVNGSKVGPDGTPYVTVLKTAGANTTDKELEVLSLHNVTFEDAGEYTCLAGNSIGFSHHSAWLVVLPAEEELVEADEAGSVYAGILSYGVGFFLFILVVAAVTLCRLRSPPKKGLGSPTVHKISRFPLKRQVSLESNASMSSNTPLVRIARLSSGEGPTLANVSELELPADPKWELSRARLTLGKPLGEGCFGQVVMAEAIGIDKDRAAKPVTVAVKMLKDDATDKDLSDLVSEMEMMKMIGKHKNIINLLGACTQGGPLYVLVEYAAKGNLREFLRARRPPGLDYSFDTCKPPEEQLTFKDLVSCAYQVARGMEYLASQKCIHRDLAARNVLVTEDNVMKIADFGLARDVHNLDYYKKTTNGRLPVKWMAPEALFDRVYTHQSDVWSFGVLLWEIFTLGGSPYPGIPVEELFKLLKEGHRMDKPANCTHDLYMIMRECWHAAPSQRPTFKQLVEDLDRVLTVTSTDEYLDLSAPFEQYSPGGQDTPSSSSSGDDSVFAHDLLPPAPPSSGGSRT
smiles,measurement,setting,value
CN1CCN(Cc2ccc(NC(=O)CCSc3ccc4c(/C=C/c5ccccn5)n[nH]c4c3)cc2C(F)(F)F)CC1,GI50,[1],33 nM
same,Vd,[2],45.3 L/kg
same,GI50,[3],36 nM
same,Activity,K562 [4],Active
same,inhibition,[5],Active
same,inhibition,[6],Active
same,GI50,[7],25 nM
same,Cmax,[8],48.6 ng/mL
same,TGI,BaF3 [9],Active
same,inhibition,[10],Active
same,inhibition,[11],Active
same,Activity,MEG-01 [12],Active
same,GI50,HL-60,870 nM
same,Activity,BaF3 [13],Active
same,Activity,KU812 cell line,Active
same,GI50,[14],3 nM
same,GI50,U-937,780 nM
same,GI50,[15],1050 nM
same,GI50,MEG-01 [16],1 nM
same,Activity,BaF3 [17],Active
same,GI50,[18],103 nM
same,bioavailability,[19],10.9%
same,half-life,[20],5 h
same,GI50,MEC1,500 nM
same,Cmax,[21],525 ng/mL
same,GI50,[22],120 nM
same,Tmax,[23],1 h
same,GI50,K562 [24],1 nM
same,GI50,[25],2 nM
same,IC50,[26],0.2 nM
same,GI50,OCI-AML2,1420 nM
same,GI50,[27],73 nM
same,inhibition in vivo at 25 mg/kg,BaF3 [28],29%
same,MRT last,[29],1.2 h
same,GI50,[30],1540 nM
same,MRT last,[31],1.7 h
